Assay [1] has as its target T1, ATP-dependent translocase ABCB1 (Homo sapiens, UniProt P08183). As to the kind of experiment: Inhibition of ABCB1 in human A2780 ADR cells assessed as increase in calcein-AM fluorescence intensity using calcein-AM as tracer preincubated for 30 mins followed by calcein-AM addition and measured within 30 mins at 30s intervals by fluorescence based analysis. In kind it is cell-based.

In assay [2] the target is T1, ATP-dependent translocase ABCB1. The assay can be described thus: Inhibition of ABCB1 in human A2780 ADR cells assessed as increase in daunorubicin fluorescence intensity using daunorubicin as tracer preincubated for 30 mins followed by daunorubicin addition and measured for 180 mins by flow cytometry. The class given is cell-based.
For assay [3], the target named is Multidrug resistance-associated protein 1 (Homo sapiens, UniProt P33527). The assay can be described thus: Inhibition of ABCC1 in human NCI-H69AR cells assessed as increase in rhodamine123 fluorescence intensity using rhodamine123 as tracer preincubated for 30 mins followed by rhodamine 123 addition and measured for 180 mins by flow cytometry. The class given is cell-based. Particulars: for pIC50: read-out: IC50.
Multidrug resistance-associated protein 1, sequence (P33527 whole entry): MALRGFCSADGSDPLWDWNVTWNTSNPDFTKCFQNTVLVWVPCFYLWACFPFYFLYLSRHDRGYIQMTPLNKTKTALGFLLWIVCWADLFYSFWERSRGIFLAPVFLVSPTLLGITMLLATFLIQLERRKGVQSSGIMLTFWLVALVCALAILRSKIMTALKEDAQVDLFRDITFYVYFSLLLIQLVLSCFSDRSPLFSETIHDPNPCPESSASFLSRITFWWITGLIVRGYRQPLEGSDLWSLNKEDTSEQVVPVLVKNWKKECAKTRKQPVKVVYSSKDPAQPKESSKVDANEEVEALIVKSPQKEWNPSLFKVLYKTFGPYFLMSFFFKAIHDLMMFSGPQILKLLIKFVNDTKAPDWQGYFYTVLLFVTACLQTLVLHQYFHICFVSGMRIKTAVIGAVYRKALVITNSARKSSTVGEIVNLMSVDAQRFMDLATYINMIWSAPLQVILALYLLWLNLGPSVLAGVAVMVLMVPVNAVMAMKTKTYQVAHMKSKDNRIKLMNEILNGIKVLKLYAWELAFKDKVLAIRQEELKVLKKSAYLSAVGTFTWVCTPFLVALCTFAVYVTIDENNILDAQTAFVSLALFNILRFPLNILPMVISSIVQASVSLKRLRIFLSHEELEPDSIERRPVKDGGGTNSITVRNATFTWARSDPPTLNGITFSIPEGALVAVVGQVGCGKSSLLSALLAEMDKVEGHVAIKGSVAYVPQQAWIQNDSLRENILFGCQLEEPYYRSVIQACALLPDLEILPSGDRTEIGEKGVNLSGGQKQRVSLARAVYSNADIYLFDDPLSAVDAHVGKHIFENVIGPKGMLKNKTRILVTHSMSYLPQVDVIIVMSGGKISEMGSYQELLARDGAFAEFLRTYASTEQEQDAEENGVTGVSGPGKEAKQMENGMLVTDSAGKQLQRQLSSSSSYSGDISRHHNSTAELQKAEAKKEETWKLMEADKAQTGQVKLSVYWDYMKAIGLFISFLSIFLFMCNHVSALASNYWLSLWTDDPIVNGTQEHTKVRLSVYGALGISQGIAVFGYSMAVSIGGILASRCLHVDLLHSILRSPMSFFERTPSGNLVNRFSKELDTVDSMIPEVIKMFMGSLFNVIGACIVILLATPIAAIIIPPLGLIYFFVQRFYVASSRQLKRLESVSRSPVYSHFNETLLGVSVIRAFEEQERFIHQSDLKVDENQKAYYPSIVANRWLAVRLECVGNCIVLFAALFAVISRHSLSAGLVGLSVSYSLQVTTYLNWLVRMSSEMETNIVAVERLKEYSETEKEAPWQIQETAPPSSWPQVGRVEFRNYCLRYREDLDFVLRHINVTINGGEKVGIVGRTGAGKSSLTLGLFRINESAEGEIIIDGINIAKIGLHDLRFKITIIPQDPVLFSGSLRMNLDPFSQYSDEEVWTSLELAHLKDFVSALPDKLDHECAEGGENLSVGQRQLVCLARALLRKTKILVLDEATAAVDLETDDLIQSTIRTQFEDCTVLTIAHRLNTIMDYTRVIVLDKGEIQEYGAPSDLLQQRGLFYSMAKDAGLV

Assay [4] addresses T2, Broad substrate specificity ATP-binding cassette transporter ABCG2 (Homo sapiens, UniProt Q9UNQ0).
T2 sequence (Q9UNQ0 whole entry): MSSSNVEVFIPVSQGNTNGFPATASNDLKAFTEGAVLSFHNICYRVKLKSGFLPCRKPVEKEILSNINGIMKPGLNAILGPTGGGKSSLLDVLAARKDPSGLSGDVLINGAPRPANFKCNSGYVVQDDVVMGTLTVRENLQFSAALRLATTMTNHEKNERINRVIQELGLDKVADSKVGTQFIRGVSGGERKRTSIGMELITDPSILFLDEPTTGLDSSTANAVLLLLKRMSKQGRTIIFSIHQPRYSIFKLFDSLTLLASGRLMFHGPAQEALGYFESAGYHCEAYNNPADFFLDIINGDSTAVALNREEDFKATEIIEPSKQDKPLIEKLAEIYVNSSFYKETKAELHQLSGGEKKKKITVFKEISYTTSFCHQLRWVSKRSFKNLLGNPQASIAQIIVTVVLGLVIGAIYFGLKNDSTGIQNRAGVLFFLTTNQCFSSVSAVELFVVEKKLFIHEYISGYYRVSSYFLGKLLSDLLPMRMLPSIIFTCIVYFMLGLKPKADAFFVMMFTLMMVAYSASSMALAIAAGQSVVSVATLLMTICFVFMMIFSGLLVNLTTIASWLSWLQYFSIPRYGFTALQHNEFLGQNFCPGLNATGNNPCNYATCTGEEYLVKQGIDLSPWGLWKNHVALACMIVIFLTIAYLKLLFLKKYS
The assay can be described thus: Inhibition of ABCG2 (unknown origin) expressed in dog MDCK-II-BCRP cells assessed as increase in Hoechst 33342 fluorescence intensity using Hoechst 33342 as tracer preincubated for 30 mins followed by Hoechst 33342 addition and measured after 120 mins by fluorescence based analysis. In kind it is cell-based.

The target in assay [5] is Sodium-dependent serotonin transporter (Homo sapiens) (UniProt P31645). As to the kind of experiment: Inhibition of SERT (unknown origin) expressed in HEK293 cells assessed as inhibition of MPP+ transport incubated for 5 mins by tandem mass spectrometry. In kind it is cell-based.
Sodium-dependent serotonin transporter (Homo sapiens), sequence (P31645 whole entry, looked up): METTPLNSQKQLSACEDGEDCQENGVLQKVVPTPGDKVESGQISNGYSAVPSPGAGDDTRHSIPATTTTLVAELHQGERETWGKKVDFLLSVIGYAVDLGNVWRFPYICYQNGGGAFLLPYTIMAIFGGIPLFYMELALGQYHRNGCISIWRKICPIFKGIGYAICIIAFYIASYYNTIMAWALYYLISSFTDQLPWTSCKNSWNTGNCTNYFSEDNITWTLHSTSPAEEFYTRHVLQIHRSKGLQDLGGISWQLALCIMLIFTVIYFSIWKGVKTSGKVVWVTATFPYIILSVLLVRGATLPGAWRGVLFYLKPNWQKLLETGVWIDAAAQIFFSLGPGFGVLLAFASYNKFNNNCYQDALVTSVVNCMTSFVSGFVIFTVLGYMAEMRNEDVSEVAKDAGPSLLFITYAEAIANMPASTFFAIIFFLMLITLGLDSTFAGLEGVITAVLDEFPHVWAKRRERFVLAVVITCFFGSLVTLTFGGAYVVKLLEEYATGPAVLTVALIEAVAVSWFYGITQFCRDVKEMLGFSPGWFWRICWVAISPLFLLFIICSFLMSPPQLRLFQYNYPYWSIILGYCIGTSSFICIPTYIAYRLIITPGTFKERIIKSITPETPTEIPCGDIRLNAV
For assay [6], the target named is T3, Solute carrier organic anion transporter family member 2B1 (Homo sapiens, UniProt O94956).
T3 sequence (O94956 whole entry): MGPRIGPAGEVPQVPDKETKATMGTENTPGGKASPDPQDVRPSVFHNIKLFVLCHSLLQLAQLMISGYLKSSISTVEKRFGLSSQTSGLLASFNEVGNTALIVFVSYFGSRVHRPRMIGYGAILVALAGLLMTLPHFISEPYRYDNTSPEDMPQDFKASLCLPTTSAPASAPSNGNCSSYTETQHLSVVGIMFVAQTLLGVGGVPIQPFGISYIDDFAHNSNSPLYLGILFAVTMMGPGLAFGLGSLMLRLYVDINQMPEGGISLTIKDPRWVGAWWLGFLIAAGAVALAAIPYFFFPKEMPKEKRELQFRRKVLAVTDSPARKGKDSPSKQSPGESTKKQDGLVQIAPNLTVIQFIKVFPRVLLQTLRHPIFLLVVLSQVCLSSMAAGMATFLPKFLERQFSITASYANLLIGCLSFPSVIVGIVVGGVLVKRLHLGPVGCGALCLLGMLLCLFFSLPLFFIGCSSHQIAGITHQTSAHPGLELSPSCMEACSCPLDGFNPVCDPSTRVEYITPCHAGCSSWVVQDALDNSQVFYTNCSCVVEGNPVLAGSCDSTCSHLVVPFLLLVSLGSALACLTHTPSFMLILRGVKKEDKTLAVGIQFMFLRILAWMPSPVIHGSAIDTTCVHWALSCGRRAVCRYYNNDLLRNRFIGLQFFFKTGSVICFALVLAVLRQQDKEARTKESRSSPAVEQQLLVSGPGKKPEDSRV
The assay can be described thus: Inhibition of OATP2B1 (unknown origin) transfected in human A-431 cells assessed as inhibition of pyranine uptake preincubated for 5 mins followed by pyranine addition and measured after 15 mins by fluorescence based analysis. In kind it is cell-based.

Assay [7] deals with T4, Solute carrier family 22 member 3 (Homo sapiens, UniProt O75751).
T4 sequence (O75751 whole entry): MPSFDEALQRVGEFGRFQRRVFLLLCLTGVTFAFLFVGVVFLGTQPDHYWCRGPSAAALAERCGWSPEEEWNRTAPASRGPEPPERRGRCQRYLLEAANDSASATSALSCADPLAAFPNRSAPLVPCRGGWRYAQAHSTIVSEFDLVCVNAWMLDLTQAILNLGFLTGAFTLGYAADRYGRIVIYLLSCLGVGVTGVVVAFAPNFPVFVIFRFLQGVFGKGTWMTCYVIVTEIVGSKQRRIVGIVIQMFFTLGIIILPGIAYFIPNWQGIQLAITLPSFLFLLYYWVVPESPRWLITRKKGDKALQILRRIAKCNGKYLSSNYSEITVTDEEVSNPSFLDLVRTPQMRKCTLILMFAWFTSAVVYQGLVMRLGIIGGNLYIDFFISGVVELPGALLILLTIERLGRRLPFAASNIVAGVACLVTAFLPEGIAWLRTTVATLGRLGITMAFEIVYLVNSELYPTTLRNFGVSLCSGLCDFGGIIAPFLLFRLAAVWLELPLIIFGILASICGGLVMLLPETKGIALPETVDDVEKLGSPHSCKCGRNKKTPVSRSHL
The assay can be described thus: Inhibition of OCT3 (unknown origin) expressed in HEK293 cells assessed as inhibition of ASP+ uptake incubated for 5 mins by fluorescence based analysis. Particulars: for IC50: hek293; for pIC50: read-out: IC50. The class given is cell-based.

The nature of assay [8]: Inhibition of ABCA1 (unknown origin) expressed in mouse J774.A1 cells assessed as inhibition of 25-NBD-cholesterol fluorescence intensity preincubated for 24 hrs followed by 25-NBD-cholesterol addition and measured after 48 hrs by flow cytometry. In kind it is cell-based, Homo sapiens. The conditions noted are these: for pIC50: read-out: IC50.

pIC50: −log10 of the molar value. Active and inactive are the calls of the source. The calls are words filed in the database; no cut-off is given here.

T1 sequence (P08183 whole entry): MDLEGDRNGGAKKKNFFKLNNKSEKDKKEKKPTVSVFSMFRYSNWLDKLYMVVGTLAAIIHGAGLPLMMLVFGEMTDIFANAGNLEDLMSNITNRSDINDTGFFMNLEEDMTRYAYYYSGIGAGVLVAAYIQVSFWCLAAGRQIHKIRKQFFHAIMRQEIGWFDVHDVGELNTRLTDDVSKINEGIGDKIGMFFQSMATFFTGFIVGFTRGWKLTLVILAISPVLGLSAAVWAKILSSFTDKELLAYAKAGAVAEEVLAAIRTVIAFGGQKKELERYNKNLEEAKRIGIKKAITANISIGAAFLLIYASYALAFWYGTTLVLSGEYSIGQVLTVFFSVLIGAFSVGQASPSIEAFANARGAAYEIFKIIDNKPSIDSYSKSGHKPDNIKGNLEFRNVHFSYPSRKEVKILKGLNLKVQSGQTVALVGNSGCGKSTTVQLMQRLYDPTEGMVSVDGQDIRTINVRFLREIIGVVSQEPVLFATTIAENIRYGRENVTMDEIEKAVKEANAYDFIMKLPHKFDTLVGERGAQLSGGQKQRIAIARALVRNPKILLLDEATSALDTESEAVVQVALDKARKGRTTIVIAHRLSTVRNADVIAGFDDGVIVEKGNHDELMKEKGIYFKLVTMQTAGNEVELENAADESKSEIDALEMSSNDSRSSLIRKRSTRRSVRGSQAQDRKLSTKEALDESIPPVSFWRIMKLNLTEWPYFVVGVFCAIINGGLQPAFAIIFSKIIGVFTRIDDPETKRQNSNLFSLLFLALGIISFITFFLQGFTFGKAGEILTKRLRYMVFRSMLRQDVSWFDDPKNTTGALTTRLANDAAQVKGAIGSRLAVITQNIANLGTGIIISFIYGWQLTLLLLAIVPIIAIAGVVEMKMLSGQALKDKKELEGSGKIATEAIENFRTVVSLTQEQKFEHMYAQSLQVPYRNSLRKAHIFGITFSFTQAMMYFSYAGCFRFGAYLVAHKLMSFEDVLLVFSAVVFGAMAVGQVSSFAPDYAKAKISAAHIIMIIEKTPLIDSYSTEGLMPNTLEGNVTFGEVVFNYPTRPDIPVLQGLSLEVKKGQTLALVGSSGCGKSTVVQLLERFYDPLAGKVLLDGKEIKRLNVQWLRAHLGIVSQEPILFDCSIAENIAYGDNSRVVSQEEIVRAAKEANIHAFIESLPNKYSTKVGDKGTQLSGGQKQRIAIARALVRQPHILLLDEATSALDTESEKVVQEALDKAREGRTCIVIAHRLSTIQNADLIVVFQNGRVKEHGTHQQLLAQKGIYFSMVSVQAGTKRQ

`COc1cccc(NC(=O)Cn2nc(C(=O)Nc3cccc(OC)c3)c3ccccc32)c1`: the pIC50 in assay [1] is 5.96; in assay [2] it was 5.84; in assay [3], 5.58; in assay [4], 5.68; in assay [6], 6.23. Also, the inhibition result in assay [5] was “inactive”. Besides, the IC50 entry in assay [7] and in assay [8] was “Not_active” throughout.
`O=C(Cn1nc(C(=O)Nc2ccccn2)c2ccccc21)Nc1cc(Cl)ccc1Cl`: the negative-log IC50 (pIC50) was 6.20 in assay [1]; 5.76 in assay [2]; 5.99 in assay [4]; 6.78 in assay [6]; 4.89 in assay [8]. The IC50 entry in assay [3] (nci-h69ar) and in assay [7] was “Not_active” throughout. For the same molecule, the inhibition entry in assay [5] was “inactive”.
Consider `O=C(Cn1nc(C(=O)Nc2cccnc2)c2ccccc21)Nc1ccc(Cl)cc1`, for which the pIC50 was 5.21 in assay [1]; 5.10 in assay [2]; 5.54 in assay [3]; 5.18 in assay [4]; 6.81 in assay [6]; 3.95 in assay [7]. In assay [8], the pIC50 was 5.33. Moreover, in assay [5], the inhibition entry is “inactive”.
With `COc1cccc(NC(=O)c2nn(CC(=O)Nc3ccccc3OC)c3ccccc23)c1`, the pIC50 in assay [1] is 5.81; in assay [2], 5.66; in assay [3] it was 5.42; in assay [4], 5.20; in assay [6] it was 6.91; in assay [7] it was 4.12. In assay [5], the inhibition result is “inactive”. Further, the IC50 result in assay [8] is reported as “Not_active”.

These data come from ChEMBL document CHEMBL6109064, “Functional and structural polypharmacology of indazole-based privileged ligands to tackle the undruggability of membrane transporters” (Eur J Med Chem, 2025).
